Literature values as cited in patent US7144857B2 (priority 2004, dated 2006).

Tested on: sternal wound infections
Conditions: 416 patients, randomized to topical vancomycin; p=0.02

With CN[C@H](CC(C)C)C(=O)N[C@H]1C(=O)N[C@@H](CC(N)=O)C(=O)N[C@H]2C(=O)N[C@H]3C(=O)N[C@H](C(=O)N[C@H](C(=O)O)c4cc(O)cc(O)c4-c4cc3ccc4O)[C@H](O)c3ccc(c(Cl)c3)Oc3cc2cc(c3O[C@@H]2O[C@H](CO)[C@@H](O)[C@H](O)[C@H]2O[C@H]2C[C@](C)(N)[C@H](O)[C@H](C)O2)Oc2ccc(cc2Cl)[C@H]1O [topical vancomycin, vancomycin] as the compound, how does the “decrease of the rate of sternal infection” value read?
Its value is 7 factor.
